Measured values: patent publication US9266891B2, “Substituted [1,2,4]triazolo[4,3-A]pyrazines that are BRD4 inhibitors” (Boehringer Ingelheim International GmbH, priority 2012, dated 2016)

Target: BRD4-BD1 (Homo sapiens (Human), UniProt O60885)
Experiment: BRD4-H4 tetraacetylated peptide inhibition AlphaScreen
Type: binding
Conditions: GST-BRD4-BD1 (aa 44-168) with biotinylated Acetyl-Histone H4 (Lys5, 8, 12, 16) peptide
Procedure: Biological Methods BRD4-H4 Tetraacetylated Peptide Inhibition AlphaScreen
Compounds are diluted in serial dilution 1:5 in assay buffer from 10 mM stock in DMSO (100 μM start concentration) in white OptiPlate-384 (PerkinElmer). A mix consisting of 15 nM GST-BRD4-BD1 protein (aa 44-168) or 150 nM GST-BRD4-BD2 (aa 333-460) and 15 nM biotinylated Acetyl-Histone H4 (Lys5, 8, 12, 16) peptide is prepared in assay buffer (50 mM HEPES pH=7.4; 25 mM NaCl; 0.05% Tween 20; 0.1% bovine serum albumin (BSA); 10 mM dithiothreitol (DTT)). 6 μl of the mix is added to the compound dilutions. Subsequently, 6 μl of premixed AlphaLISA Glutathione Acceptor Beads and AlphaScreen Streptavidin Donor Beads from PerkinElmer (in assay buffer at a concentration of 10 μg/ml each) are added and the samples are incubated for 30 min at RT in the dark (shaking 300 rpm). Afterwards, the signal is measured in a PerkinElmer Envision HTS Multilabel Reader using the AlphaScreen protocol from PerkinElmer. Each plate contains negative controls where biotinylated Acetyl-Histone H4 peptide and GST-BRD4-BD1 or GST-BRD4-BD2 are left out and replaced by assay buffer. Negative control values are entered as low basis value when using the software GraphPad Prism for calculations. Furthermore, a positive control (probe molecule JQ1+ with protein/peptide mix) is pipetted. Determination of IC50 values are carried out using GraphPad Prism 3.03 software (or updates thereof).

| Compound | IC50 [nM] |
| --- | --- |
| CNc1nc(-c2cn(C)nc2Cc2ccccc2)cn2c(C)nnc12 [Example I-1, 6-(3-benzyl-1-methyl-1H-pyrazol-4-yl)-N,3-dimethyl-[1,2,4]triazolo[4,3-a]pyrazin-8-amine] | 61 |
| CNc1nc(-c2cnn(C)c2Oc2ccccc2)cn2c(C)nnc12 [Example I-2] | 41 |
| Cc1nc(-c2cnn(C)c2Oc2ccccc2)cn2c(C)nnc12 [Example I-3] | 41 |
| CNc1nc(-c2nn(C)c(C)c2Cc2ccccc2)cn2c(C)nnc12 [Example I-4] | 18 |
| CNc1nc(-c2nc(-c3ccccc3)c(C)n2Cc2ccccc2)cn2c(C)nnc12 [II-1, 6-(1-benzyl-5-methyl-4-phenyl-1H-imidazol-2-yl)-N,3-dimethyl-[1,2,4]triazolo[4,3-a]pyrazin-8-amine] | 4 |
| CNc1nc(-c2nc(C)c(C)n2Cc2ccccc2)cn2c(C)nnc12 [II-2] | 15 |
| Cc1nc(-c2cn3c(C)nnc3c(C)n2)n(Cc2ccccc2)c1C [II-3] | 31 |
| Cc1nnc2c(NC3CCN(C)CC3)nc(-c3nc4ccccc4n3Cc3ccccc3)cn12 [III-1, N-[6-(1-benzyl-1H-1,3-benzodiazol-2-yl)-3-methyl-[1,2,4]triazolo[4,3-a]pyrazin-8-yl]-1-methylpiperidin-4-amine] | 7 |
| COCCN1CCC(Nc2nc(-c3nc4ccccc4n3[C@@H](C)c3ccccc3)cn3c(C)nnc23)CC1 [III-2] | 41 |
| COCCN1CCC(Nc2nc(-c3nc4ccccc4n3[C@H](C)c3ccccc3)cn3c(C)nnc23)CC1 [III-3] | 49 |
| COCCN1CCC(Nc2nc(-c3nc4ccccc4n3Cc3ccccc3)cn3c(C)nnc23)CC1 [III-4] | 8 |
| COCCN1CCC(Nc2nc(-c3nc4ccccc4n3Cc3ccc(F)cc3)cn3c(C)nnc23)CC1 [III-5] | 9 |
| COCCN1CCC(Nc2nc(-c3nc4ccccc4n3Cc3ccc(F)c(F)c3)cn3c(C)nnc23)CC1 [III-6] | 9 |
| CNc1nc(-c2nc3ccccc3n2Cc2ccccc2)cn2c(C)nnc12 [III-7] | 22 |
| CNc1nc(-c2nc3cnc(N4CCN(C)CC4)cc3n2Cc2ccccc2)cn2c(C)nnc12 [III-8] | 9 |
| Cc1nc(-c2nc3cnc(N4CCN(C)CC4)cc3n2Cc2ccccc2)cn2c(C)nnc12 [III-9] | 14 |
| CNc1nc(-c2nc3cccnc3n2Cc2ccccc2)cn2c(C)nnc12 [III-10] | 18 |
| CNc1nc(-c2nc3cnc(N4CCN(C)CC4)nc3n2Cc2ccccc2)cn2c(C)nnc12 [III-11] | 9 |
| COCCN1CCC(Nc2nc(-c3nc4ccc(N5CCOCC5)cc4n3Cc3ccccc3)cn3c(C)nnc23)CC1 [III-12] | 7 |
| CNc1nc(-c2nc3ccc(N4CCN(C)CC4)cc3n2Cc2ccccc2)cn2c(C)nnc12 [III-13] | 9 |

| Compound | IC50 [nM] |
| --- | --- |
| CNc1nc(-c2nc3ccc(N4CCOCC4)cc3n2Cc2ccccc2)cn2c(C)nnc12 [III-14] | 10 |
| COCCN1CCC(Nc2nc(-c3nc4cc(C5=NNC(=O)CC5C)ccc4n3Cc3ccccc3)cn3c(C)nnc23)CC1 (stereo not drawn) [III-15] | 3 |
| CNc1nc(-c2nc3cc(C4=NNC(=O)CC4C)ccc3n2Cc2ccccc2)cn2c(C)nnc12 (stereo not drawn) [III-16] | 5 |
| CCNc1nc(-c2nc3cnc(N4CCN(C)CC4)cc3n2Cc2ccccc2)cn2c(C)nnc12 [III-17] | 17 |
| Cc1nnc2c(NC(C)C)nc(-c3nc4cnc(N5CCN(C)CC5)cc4n3Cc3ccccc3)cn12 [III-18] | 26 |
| Cc1nnc2c(NC(C)C)nc(-c3nc4cnc(N5CCOC[C@@H]5C)cc4n3[C@@H](C)c3ccccc3)cn12 [III-19] | 38 |
| CNc1nc(-c2nc3cnc(N4CCN(C)CC4)cc3n2Cc2ccccn2)cn2c(C)nnc12 [III-20] | 13 |
| CNc1nc(-c2nc3ccc(N4CCN(C)CC4)cc3n2Cc2ccccn2)cn2c(C)nnc12 [III-21] | 8 |
| CNc1nc(-c2nc3cnc(N4CCOCC4)cc3n2Cc2ccccn2)cn2c(C)nnc12 [III-22] | 3 |
| CNc1nc(-c2nc3ccc(N4CCOCC4)cc3n2Cc2ccccn2)cn2c(C)nnc12 [III-23] | 3 |
| Cc1nnc2c(N[C@@H]3CCOC3)nc(-c3nc4cnc(N5CCOCC5)cc4n3Cc3ccccn3)cn12 [III-24] | 20 |
| CNc1nc(-c2nc3cc(C4CCOCC4)ccc3n2Cc2ccccn2)cn2c(C)nnc12 [III-25] | 11 |
| Cc1nnc2c(NC(C)C)nc(-c3nc4ccc(N5CCOCC5)cc4n3Cc3ccccn3)cn12 [III-26] | 5 |
| Cc1nnc2c(NC(C)C)nc(-c3nc4cnc(N5CCOCC5)cc4n3Cc3ccccn3)cn12 [III-27] | 10 |
| Cc1nnc2c(NC(C)C)nc(-c3nc4cnc(N5CCOCC5)cc4n3Cc3ccc(F)cn3)cn12 [III-28] | 1 |
| Cc1nnc2c(NC(C)C)nc(-c3nc4cnc(N5CCOC[C@H]5C)cc4n3Cc3ccccn3)cn12 [III-29] | 9 |
| Cc1nnc2c(NC(C)C)nc(-c3nc4cnc(N5CCOC[C@@H]5C)cc4n3Cc3ccccn3)cn12 [III-30] | 9 |
| Cc1nnc2c(NC(C)C)nc(-c3nc4cnc(N(C)C)cc4n3Cc3ccccn3)cn12 [III-31] | 13 |
| Cc1nnc2c(NC(C)C)nc(-c3nc4ccc(N(C)C)cc4n3Cc3ccccn3)cn12 [III-32] | 7 |
| Cc1nnc2c(NC(C)C)nc(-c3nc4ccccc4n3Cc3ccccn3)cn12 [III-33] | 20 |

| Compound | IC50 [nM] |
| --- | --- |
| COc1ccc2nc(-c3cn4c(C)nnc4c(NC(C)C)n3)n(Cc3ccccn3)c2c1 [III-34] | 45 |
| Cc1ccc2nc(-c3cn4c(C)nnc4c(NC(C)C)n3)n(Cc3ccccn3)c2c1 [III-35] | 15 |
| Cc1cc2c(cn1)nc(-c1cn3c(C)nnc3c(NC(C)C)n1)n2Cc1ccccn1 [III-36] | 28 |
| Cc1nnc2c(NC(C)C)nc(-c3nc4cnccc4n3Cc3ccccn3)cn12 [III-37] | 14 |
| Cc1cccc(Cn2c(-c3cn4c(C)nnc4c(NC(C)C)n3)nc3cnc(N4CCOCC4)cc32)n1 [III-38] | 17 |
| COc1cc2c(cn1)nc(-c1cn3c(C)nnc3c(NC(C)C)n1)n2Cc1ccccn1 [III-39] | 126 |
| Cc1nnc2c(NC(C)C)nc(-c3nc4cnc(C(C)C)cc4n3Cc3ccccn3)cn12 [III-40] | 18 |
| Cc1nnc2c(NC(C)C)nc(-c3nc4cnc(N5CCOC[C@@H]5C)cc4n3[C@@H](C)c3ccccn3)cn12 [III-41] | 74 |
| Cc1nnc2c(NC(C)C)nc(-c3nc4cnc(C(C)C)cc4n3[C@@H](C)c3ccccn3)cn12 [III-42] | 66 |
| Cc1nnc2c(NC(C)C)nc(-c3nc4cnc(C5CCOCC5)cc4n3Cc3ccccn3)cn12 [III-43] | 34 |
| Cc1nnc2c(NC(C)C)nc(-c3nc4ccc(C5CCOCC5)cc4n3Cc3ccccn3)cn12 [III-44] | 32 |
| Cc1nnc2c(NC(C)C)nc(-c3nc4ccc(C5CCOCC5)cc4n3[C@@H](C)c3ccccn3)cn12 [III-45] | 69 |
| Cc1nnc2c(NC(C)C)nc(-c3nc4ccc(C(C)C)cc4n3[C@@H](C)c3ccccn3)cn12 [III-46] | 243 |
| CNc1nc(-c2nc3cnc(N4CCN(C)CC4)cc3n2Cc2cccnc2)cn2c(C)nnc12 [III-47] | 12 |
| CNc1nc(-c2nc3ccc(N4CCN(C)CC4)cc3n2Cc2cccnc2)cn2c(C)nnc12 [III-48] | 8 |
| CNc1nc(-c2nc3cnc(N4CCOCC4)cc3n2Cc2cccnc2)cn2c(C)nnc12 [III-49] | 4 |
| CNc1nc(-c2nc3ccc(N4CCOCC4)cc3n2Cc2cccnc2)cn2c(C)nnc12 [III-50] | 5 |
| Cc1nnc2c(N[C@@H]3CCOC3)nc(-c3nc4cnc(N5CCOCC5)cc4n3Cc3cccnc3)cn12 [III-51] | 13 |
| Cc1cc2c(cn1)nc(-c1cn3c(C)nnc3c(N[C@@H]3CCOC3)n1)n2Cc1cccnc1 [III-52] | 31 |
| CNc1nc(-c2nc3cnc(N4CCN(C)CC4)cc3n2Cc2ccncc2)cn2c(C)nnc12 [III-53] | 12 |
